# Measured values taken from patent US20140316005A1, “COMPOSITIONS FOR IMPROVED OXIDATIVE STATUS IN COMPANION ANIMALS” (HILL'S PET NUTRITION, INC., priority 2003, published 2014).
# Read-outs that look alike come from different tables or passages of the source.
# Settings: for Total gain / Weekly gain / Final wt.: kittens; for Total gain / Weekly gain: 10 weeks post-weaning; for Final wt.: end of 10-week trial
# Description: Dietary methionine was fed to growing kittens at three levels (0.77, 1.14, and 1.50%) to determine the effect of methionine on growth performance and antioxidant activity. Kittens were fed meat based, canned diets for 10 weeks post-weaning.
# [1] = Week 5, dietary methionine 0.77 wt %
# [2] = Week 5, dietary methionine 1.14 wt %
# [3] = Week 5, dietary methionine 1.50 wt %
# [4] = Week 10, dietary methionine 0.77 wt %
# [5] = Week 10, dietary methionine 1.14 wt %
# [6] = Week 10, dietary methionine 1.50 wt %
# [7] = week 5, 1.50 wt % dietary methionine vs 0.77 wt %
# [8] = week 10, 1.50 wt % dietary methionine vs 0.77 wt %
smiles,measurement,setting,value
CSCC[C@H](N)C(=O)O [methionine],"Weekly weight gain, in words",1.14 wt % and 1.50 wt % dietary methionine compared to 0.77 wt %,increased
same,ORAC (oxygen radical absorptive capacity),[1],2521.84
same,Taurine (whole blood),[1],575.63
same,Vitamin E (serum),[1],15.63
same,ORAC (oxygen radical absorptive capacity),[2],2694.51
same,Taurine (whole blood),[2],630.00
same,Vitamin E (serum),[2],19.86
same,ORAC (oxygen radical absorptive capacity),[3],3164.36
same,Taurine (whole blood),[3],783.71
same,Vitamin E (serum),[3],30.19
same,ORAC (oxygen radical absorptive capacity),[4],2972.53
same,Taurine (whole blood),[4],625.75
same,Vitamin E (serum),[4],20.74
same,ORAC (oxygen radical absorptive capacity),[5],2503.38
same,Taurine (whole blood),[5],616.13
same,Vitamin E (serum),[5],24.24
same,ORAC (oxygen radical absorptive capacity),[6],3013.31
same,Taurine (whole blood),[6],784.57
same,Vitamin E (serum),[6],25.13
same,Total gain,dietary methionine 0.77 wt %,950.00 g
same,Weekly gain,dietary methionine 0.77 wt %,95.00 g
same,Final wt.,dietary methionine 0.77 wt %,1518.75 g
same,Total gain,dietary methionine 1.14 wt %,1075.00 g
same,Weekly gain,dietary methionine 1.14 wt %,107.50 g
same,Final wt.,dietary methionine 1.14 wt %,1612.50 g
same,Total gain,dietary methionine 1.50 wt %,1221.43 g
same,Weekly gain,dietary methionine 1.50 wt %,122.14 g
same,Final wt.,dietary methionine 1.50 wt %,1792.86 g
same,"Blood taurine concentrations, in words",[7],greater
same,"Oxygen radical absorptive capacity (ORAC), in words",[7],greater
same,"Vitamin E concentrations, in words",[7],greater
same,"Oxygen radical absorptive capacity, in words",week 10,not increased
same,"Serum vitamin E concentrations, in words",[8],greater
same,"Whole blood taurine concentrations, in words",[8],greater
